Laboratory results taken from US5780303A, “Method and composition for treating thrombosis” (priority 1995, dated 1998).
Read-outs that look alike come from different tables or passages of the source.

Assays:
platelets [1] = experiment: Platelet aggregation of small cyclic disulfide and lactam peptides; assay type: cell-based; details: for potency against platelet aggregation relative to 8×: comparator 8×
Method: (§1) Platelet aggregation was assessed using the method of Born, Nature 194:927-929 (1962), incorporated herein by reference. Briefly, the change in light transmission was measured through a stirred suspension of platelets in an aggregometer (Model 400 VS, Chrono-Log, Havertown, Pa., USA). […] In studies using thrombin, the PRP was gel-filtered on Sepharose 2B in divalent ion-free Tyrode's solution containing 2% BSA. For all studies, the reference standard was platelet-poor plasma, which was obtained by centrifuging PRP at 1000×g for 5 min.
(§2) All aggregation studies were performed at 37° C. with a constantly stirred suspension of 3×10^8 platelets/mL. (Platelet count was determined with the aid of a hemacytometer.) Peptides and stimulants were added to these suspensions in 1% dilutions. The PRP and gel-filtered platelets were used within three hours from the time of blood collection.

platelets [2] = experiment: Ex vivo inhibition of platelet aggregation (Table IV); assay type: in vivo; details: dose per code
Method: Using the method described in Example V to measure ex vivo inhibition of platelet aggregation and the method described in Example VII to measure bleeding, four additional peptides were tested. These peptides included 11J, 11Q, 11K and 11V.

GP IIb/IIIa = GP IIb/IIIa (Homo sapiens, UniProt P05106+P08514); experiment: Differential inhibition of ligand binding to GP IIb/IIIa; details: fibrinogen vs fibronectin and vitronectin
[3] = tested on: Gore-tex vascular graft thrombosis; experiment: Platelet and fibrinogen uptake by Gore-Tex grafts, baboon ex vivo shunt; assay type: in vivo
Method: Adult male baboons (weighing 16 to 25 kg) were used in these studies. These were sedated with ketamine hydrochloride (200 to 250 mg intramuscular injection) and maintained under anesthesia with sodium pentobarbital (50 to 75 mg administered intravenously as necessary).
Twenty-four hours before the ex vivo shunt was established, platelets were isolated from 500 ml of blood from the test animal and labelled with ca. of 500 microcuries of indium-111 oxine (Medi+Physics, Emeryville, Calif.), which irreversibly and specifically binds to platelets with an efficiency of 50%. Immediately after labelling, these platelets were then injected back into the animal and allowed to circulate for 24 hours. Immediately before the start of the study, fibrinogen that had been isolated from the animal and labelled with iodine-131 (DuPont Nuclear, Boston, Mass.) was also injected back into the animal. Also at this time, baseline determinations of the clotting and template bleeding times were made, and blood samples were drawn for hematology studies.
To establish the ex vivo shunt, the femoral artery and vein were percutaneously cannulated with introducer catheters (KMA Inc., Mansfield, Mass.). The catheters were then connected to medical-grade, heparin-coatedsilastic tubing (2.59 mm internal diameter, (Extracorporeal Medical Specialties, Inc., King of Prussia, Pa.). […] Finally, a 5 cm-long test segment of a 4 mm (internal diameter) vascular graft was inserted at the apex of the circuit. The graft used in these studies was Gore-tex (expanded polytetrafluoroethylene, (W. L. Gore and Associates, Inc., Flagstaff, Ariz.). An electromagnetic flow probe was then inserted into the tubing circuit to measure blood flow, which was maintained at 100 ml/min. by varying the resistance imported by a partially occluding screw clamp that was distal to the probe. Finally, a 5 cm-long test segment of a 4 mm (internal diameter) vascular graft was inserted at the apex of the circuit. The graft used in these studies was Gore-tex (expanded polytetrafluoroethylene, W. L. Gore and Associates, Inc., Flagstaff, Ariz.).
Platelet deposition onto the grafts was monitored by dynamic scanning with a gamma camera (Sigma 400, Ohio Nuclear, Inc., Sohon, Ohio), which detects the gamma radiation emitted by the ^111 indium-labelled platelets. Once the circuit was in place, the animal was placed under this camera, and blood flow was initiated. Scans were then taken at the rate of one frame per two minutes for two hours. The data from these scans were collected on a dedicated Digital MDA computer (Maynard, Mass.). […]

coronary thrombosis = experiment: Electrically induced canine coronary thrombosis, time to full occlusion; assay type: in vivo, dog
Method: Male mongrel dogs weighing 14 to 20 kg were selected based on proper aggregation of their platelets in response to arachidonic acid, collagen, and adenosine disphosphate (ADP) and based on similar weights and hemodynamic properties.
Before surgery, the animals were anesthetized with sodium pentobarbital (30 mg/kg, i.v.) and then intubated and ventilated on room air with positive pressure using a respirator (Harvard Apparatus, S. Natick, Mass.) at a volume of 30 ml/kg and a frequency of 12 breaths/min. Surgery, performed under aseptic conditions, was begun with the placement of cannulae into the left carotid artery and jugular vein for monitoring arterial blood pressure (Statham P23 pressure transducer, Gould, Inc., Cardiovascular Products, Oxnard, Calif.) and administering intravenous fluids.
The heart was exposed via a left thoracotomy through the 5th intercostal space. A 2-cm segment of the left circumflex coronary artery (LCCA) was isolated from surrounding tissue by blunt dissection. […] The intra-coronary electrode was constructed by attaching a 25-gauge hypodermic needle tip to a 30-gauge Teflon-insulated silver-coated copper wire. The mechanical occluder was constructed of stainless steel in a C shape with a Teflon screw (2 mm diameter) on top. It was adjusted to control vessel circumference and decrease the reactive hyperemic flow due to a 10-sec (full) occlusion by 50-70% without affecting basal coronary blood flow (FIG. 1). A monopolar epicardial electrode was sutured to the surface of the ventricle in the region of LCCA distribution to monitor ischemic changes in the electrocardiogram (ECG). The left atrium was cannulated with polythylene tubing for administration of the peptide. Continuous recordings of blood pressure, limb lead II ECG, epicardial electrogram, and mean and phasic LCCA blood flow were obtained on a Model 7 polygraph (Grass Instrument Co., Quincy, Mass.).
One hour after the completion of surgery, a 100 micro-amp continuous anodal direct current delivered from a 9 volt nickel-cadmium battery was applied to the intimal surface of the LCCA. The anode of the battery was in series with a 250,000 ohm potentiometer and the intraluminal coronary artery electrode. The electric circuit was completed by placing the cathode in a subcutaneous site. Electrical stimulation was applied for three hours. At the conclusion of each experiment, the heart was fibrillated electrically and quickly removed, and the LCCA was dissected free as far as possible to verify he position of the implanted anodal electrode.
(§3) Animals were randomly assigned to two treatment groups: vehicle control (i.e., normal saline) or RGD peptides at various concentrations. Peptides were administered intra-atrially in both bolus and continuous injections. Each bolus injection consisted of 0.5 to 10 mg/kg and was administered 15 minutes before application of the current. A continuous infusion of the same peptide was then started immediately after completion of this initial injection. Animals received a 25 μg/kg/min to 200 μg/kg/min infusion. The anti-thrombotic effects of the peptides were monitored until 30 minutes after the occurrence of a persistent, occlusive thrombus or five hours after the initiation of electrical stimulation (whichever resulted first). If an occlusive thrombus had not developed within four hours after the initiation of current, the peptide infusion was stopped.
Coronary thrombosis was quantified as the time to full occlusion. The effects of the various peptide treatments on coronary thrombosis is illustrated in FIG. 4.

platelets [4] = experiment: Ex vivo platelet aggregation in canine coronary thrombosis model; set-up: species or system dog
Method: For all ex vivo studies (see FIG. 3), control aggregation values were standardized to the percentages of light transmission observed in PRP and PPP samples (0% and 100%, respectively).
as §3
Platelet counts and ex vivo aggregation studies were performed one hour before and 1, 3, and 5 hours after application of anodal direct current.
Platelet aggregation was also determined ex vivo at one, three, and five hours after current application. For these studies, arachidonic acid, or collagen was again used to stimulate the platelets.

platelets [5] = experiment: Ex vivo platelet aggregation in baboon PRP; details: animal 2; PRP at 0, 1, 2 h
Method: At one- and two-hour time points, template bleeding times were measured, and blood samples were drawn to assess the hematology aggregation studies. Platelet aggregation studies were performed as described in Example V using ADP as the stimulus.
In addition, platelet aggregation studies were conducted on PRP derived from the second animal. Whole blood was drawn at three time points (0, 1 and 2 hours) of both control and experimental shunts.

platelets [6] = assay type: cell-based, human; details: ADP 10 μM, citrated PRP; unit only in text b178 (printed μm); read-out: ADP-Stimulated Aggregation
Method: Platelet aggregation assays were performed following the methods of this Example or those of Example IX.G. Platelet aggregation was assessed using the method of Born, Nature 194:927-929 (1962), incorporated herein by reference. Briefly, the change in light transmission was measured through a stirred suspension of platelets in an aggregometer (Model 400 VS, Chrono-Log, Havertown, Pa., USA). Studies employing ADP were performed with platelet-rich plasma (PRP), which was obtained by low-speed centrifugation (200×g for 10 min.) of whole blood freshly drawn into trisodium citrate (at a final concentration of 11 mm). In studies using thrombin, the PRP was gel-filtered on Sepharose 2B in divalent ion-free Tyroda's solution containing 2% BSA. For all studies, the reference standard was platelet-poor plasma, which was obtained by centrifuging PRP at 1000×g for 5 min.
All aggregation studies were performed at 37° C. with a constantly stirred suspension of 3×10^8 platelets/ml. (Platelet count was determined with the aid of a hemacytometer.) Peptides and stimulants were added to these suspensions in 1% dilutions. […]

platelets [7] = experiment: Thrombin-stimulated platelet aggregation (Table I); assay type: cell-based, human; details: thrombin 2 U/ml, gel-filtered platelets; unit only in text b178 (printed μm)
Method: as §1, with “Platelet aggregation assays were performed following the methods of this Example or those of Example IX.G. Platelet” for “Platelet”, “Tyroda's” for “Tyrode's”
as §2, with “platelets/ml.” for “platelets/mL.”
Peptide anti-aggregation potencies were determined from dose-responsive curves for the inhibition of the maximum aggregation responses stimulated by physiologic doses of ADP (10 μm) and thrombin (2 U/ml).

[8] = Peripheral blood flow (PBF) by laser doppler probe, rabbit ear; assay type: in vivo; details: time 10 min; bolus dose per drug
Method: In an alternative series of experiments, (Table 2) PBF was measured quantitatively with a laser dopler flow probe (Perimed). The probe was positioned securely over the vascular bed of one ear and flow monitored continuously. Each inhibitor was infused and CBT measured in the opposing ear. No arterial catheter was placed for blood sampling, consequently XPA […] in these animals.
As positive control, epinephrine was infused intravenously (1 mg over 2 minutes) at 60 minutes. The resulting vasoconstriction reduced flow to near 0 flow units within 5 minutes.

[9] = animal 1, two bolus IV injections of 10 mg/kg
[10] = animal 2, 10 mg/kg bolus IV plus 10 mg/kg/hr infusion for 2 h

GP IIb/IIIa, sequence (P08514 32-887 limits assumed): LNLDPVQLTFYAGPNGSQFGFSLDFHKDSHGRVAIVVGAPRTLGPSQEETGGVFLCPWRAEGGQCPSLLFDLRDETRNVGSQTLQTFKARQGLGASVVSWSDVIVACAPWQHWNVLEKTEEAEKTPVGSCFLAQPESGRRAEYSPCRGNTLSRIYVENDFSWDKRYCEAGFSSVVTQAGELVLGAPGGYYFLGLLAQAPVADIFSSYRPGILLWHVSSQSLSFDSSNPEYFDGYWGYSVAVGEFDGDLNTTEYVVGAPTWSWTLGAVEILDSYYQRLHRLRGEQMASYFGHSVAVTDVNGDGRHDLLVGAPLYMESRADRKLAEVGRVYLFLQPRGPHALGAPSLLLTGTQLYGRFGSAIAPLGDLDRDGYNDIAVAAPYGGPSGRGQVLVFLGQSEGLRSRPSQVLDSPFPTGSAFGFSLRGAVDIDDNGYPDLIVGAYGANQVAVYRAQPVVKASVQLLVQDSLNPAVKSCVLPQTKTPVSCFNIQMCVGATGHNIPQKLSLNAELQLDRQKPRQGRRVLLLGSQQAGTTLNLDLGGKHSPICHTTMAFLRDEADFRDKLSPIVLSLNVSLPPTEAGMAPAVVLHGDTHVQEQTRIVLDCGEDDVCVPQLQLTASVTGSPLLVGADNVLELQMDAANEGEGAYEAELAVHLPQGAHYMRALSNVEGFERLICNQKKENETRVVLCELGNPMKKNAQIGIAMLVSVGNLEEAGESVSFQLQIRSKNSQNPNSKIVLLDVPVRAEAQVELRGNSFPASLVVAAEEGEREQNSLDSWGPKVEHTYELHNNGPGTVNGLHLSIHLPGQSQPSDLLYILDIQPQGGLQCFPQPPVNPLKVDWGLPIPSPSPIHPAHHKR
GP IIb/IIIa, sequence (P08514 891-1039 partner limits assumed): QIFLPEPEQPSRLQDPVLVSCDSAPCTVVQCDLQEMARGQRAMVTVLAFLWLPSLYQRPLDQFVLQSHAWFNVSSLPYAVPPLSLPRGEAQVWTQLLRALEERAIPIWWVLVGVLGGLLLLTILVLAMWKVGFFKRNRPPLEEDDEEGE
GP IIb/IIIa, sequence (P05106 27-788): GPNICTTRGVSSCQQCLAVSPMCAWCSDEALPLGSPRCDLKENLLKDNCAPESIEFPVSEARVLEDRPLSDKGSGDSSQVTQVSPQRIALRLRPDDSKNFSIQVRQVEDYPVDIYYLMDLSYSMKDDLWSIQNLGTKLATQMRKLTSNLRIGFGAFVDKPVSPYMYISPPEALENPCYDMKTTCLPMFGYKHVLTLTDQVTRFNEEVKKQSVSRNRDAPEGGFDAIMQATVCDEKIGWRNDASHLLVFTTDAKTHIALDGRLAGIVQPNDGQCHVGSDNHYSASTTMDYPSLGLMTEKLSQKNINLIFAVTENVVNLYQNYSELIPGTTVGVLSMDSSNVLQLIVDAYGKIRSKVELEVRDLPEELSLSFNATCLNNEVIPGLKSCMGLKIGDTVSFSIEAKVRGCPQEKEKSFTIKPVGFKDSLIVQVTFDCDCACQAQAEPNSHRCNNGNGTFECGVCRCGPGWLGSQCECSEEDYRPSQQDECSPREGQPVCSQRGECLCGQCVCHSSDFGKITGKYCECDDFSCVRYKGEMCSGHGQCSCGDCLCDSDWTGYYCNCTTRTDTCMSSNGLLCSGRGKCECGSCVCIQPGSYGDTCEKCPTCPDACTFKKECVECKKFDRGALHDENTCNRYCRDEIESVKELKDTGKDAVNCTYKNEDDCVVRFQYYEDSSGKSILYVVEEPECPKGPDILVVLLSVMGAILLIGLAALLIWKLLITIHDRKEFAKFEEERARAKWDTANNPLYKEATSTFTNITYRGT

(Myr)RGD(O-Me-Y)RC-NH2 [16A]
potency against platelet aggregation relative to 8× (platelets [1]): about two-fold more reactivity than 8× | IC50 (platelets [1]; read-out: inhibited platelet aggregation with an IC50): 120 nM

Ac-CNPKGD(Y-OMe)RC-NH2 [11Q]
ex vivo inhibition of platelet aggregation (%) (platelets [2]): > 95%

Ac-CNPRGD(Y-OMe)(Nle)C-NH2 [11V]
ex vivo inhibition of platelet aggregation (%) (platelets [2]): > 98%

Ac-CNPRGD(Y-OMe)AC-NH2 [11K]
ex vivo inhibition of platelet aggregation (%) (platelets [2]): > 98%

Ac-CNPRGD(Y-OMe)EC-NH2 [11J]
ex vivo inhibition of platelet aggregation (%) (platelets [2]): > 98%

Ac-CNPRGD(Y-OMe)RCNH2 [8x]
differential inhibition of binding of ligands to GP IIb/IIIa (GP IIb/IIIa): inhibits the binding of fibrinogen to GP IIb/IIIa more than it inhibits the binding of fibronectin and vitronectin to the same integrin

G(Pen)GHRGDLRCA [2G]
reduction in 111In-platelet uptake by graft [3, 9]: 90% | reduction in 131I-fibrinogen uptake by graft [3, 9]: 79% | reduction in labelled fibrinogen uptake by graft [3, 10]: 78% | reduction in labelled platelet uptake by graft [3, 10]: 84% | time to full occlusion (coronary thrombosis) (coronary thrombosis; 10 mg/kg bolus plus infusion): did not significantly influence this frequency | ex vivo ADP-stimulated aggregation (platelets [4]; 10 mg/kg, 1, 3, 5 h): substantially inhibited | ex vivo platelet response to ADP (10 μM) (platelets [5]): completely unresponsive

G(dPen)GHRGDLRCA
IC50 (platelets [6]): 5.28 ± 0.7 µM

R2 (Pen)GHGDTPCA
IC50 (platelets [6]): 8.2 µM | IC50 (platelets [7]): 2700 nM

R(Pen)GHRGDWRCR [4Q]
time to full occlusion (coronary thrombosis) (coronary thrombosis; 5 mg/kg): significantly prolonged the time to occlusion | thrombus formation (coronary thrombosis; 5 mg/kg, circulating platelet levels one-third of normal): able to prevent thrombus formation | time to full occlusion (coronary thrombosis) (coronary thrombosis; 10 mg/kg bolus plus infusion): completely prevented occlusion | PBF (units) [8]: 9 units | ex vivo platelet activation by collagen (platelets [4]; 5 mg/kg): near-maximal inhibition | ex vivo platelet response to ADP and AA (platelets [4]; 5 mg/kg, all three time points): completely unresponsive | ex vivo platelet responsiveness (platelets [4]; 10 mg/kg, five-hour point): platelet responsiveness was slightly improved | ex vivo platelet aggregation, all three stimuli (platelets [4]; 10 mg/kg, one- and three-hour time points): prevented platelet aggregation

R(Pen)GRGDWPCR [4R]
time to full occlusion (coronary thrombosis) (coronary thrombosis; 3 mg/kg): ineffective | time to full occlusion (coronary thrombosis) (coronary thrombosis; 10 mg/kg bolus plus infusion): prevented occlusion throughout the duration of the study | ex vivo platelet response, all modes of stimulation (platelets [4]; 10 mg/kg, all time points): unresponsive to all modes of stimulation at all time points

RGD(O-Me-Y)RE-NH2 [21I]
potency against platelet aggregation relative to 8× (platelets [1]): about three-fold more reactive than 8×
